Where two headings read alike, the source gives them in different places.

Results on 3 compounds are retold here after paper PMC7833800 (Journal of Virological Methods, 2020).

The assay deals with SARS-CoV RTC (nsp12 in complex with nsp7L8) (Severe acute respiratory syndrome coronavirus, UniProt P0C6X7). The assay is described as follows: biochemical.

In turn, `O=c1cc(-c2ccc(O)cc2)oc2cc(O)cc(O)c12` [Apigenin] displayed an IC50 (IC50) of 96 µM.
Still for that read-out and setting: to `O=c1cc(-c2ccc(Oc3c(O)cc4oc(-c5ccc(O)cc5)cc(=O)c4c3O)cc2)oc2cc(O)cc(O)c12` [Hinokiflavone] belongs 0.95 µM.
`O=c1ccn([C@@H]2O[C@H](COP(=O)(O)OP(=O)(O)OP(=O)(O)O)C[C@H]2O)c(=O)[nH]1` [3’dUTP] registered an IC50 of 6.7 µM.

As usually defined, the IC50 is the concentration that gives 50% inhibition. A high value points to weaker potency in that assay.
